Columns and labels:
[1] = tested on: Escherichia coli (Stratagene, BLR); experiment: Short-term effect (CFU); format: cell-based
Procedure: (§1) For this purpose, the procedure was as follows.
LB growth medium (Becton, Dickinson and Company, Sparks, USA) […] make up to 1 liter, set pH 7
The growth test was effected as follows: 10 ml of LB medium were inoculated with E. coli and incubated at 37° C. and 200 rpm overnight.
1.5 ml reaction vessels were each filled with 1 ml of LB medium and inoculated with the E. coli suspension from the overnight culture. The E. coli suspension was adjusted at the start of the experiment to an optical density, measured at 600 nm, of 0.1. The concentration of the peptide solution in water or ZPT solution (zinc pyrithione, >96%, Sigma Aldrich) dissolved in DMSO was 2% (w/w).
(§2) The following growth was compared: • E. coli suspension and addition of P18 peptide with a final concentration in the 1.5 ml reaction vessel of 50 ppm after 5 minutes, 10 minutes, 20 minutes and 60 minutes • E. coli suspension and addition of P18 peptide with a final concentration in the 1.5 ml reaction vessel of 100 ppm after 5 minutes, 10 minutes, 20 minutes and 60 minutes • E. coli suspension and addition of P18 peptide with a final concentration in the 1.5 ml reaction vessel of 200 ppm after 5 minutes, 10 minutes, 20 minutes and 60 minutes • E. coli suspension and addition of P18 peptide with a final concentration in the 1.5 ml reaction vessel of 500 ppm after 5 minutes, 10 minutes, 20 minutes and 60 minutes • E. coli suspension and addition of P18 peptide with a final concentration in the 1.5 ml reaction vessel of 1000 ppm after 5 minutes, 10 minutes, 20 minutes and 60 minutes • E. coli suspension and addition of ZPT with a final concentration in the 1.5 ml reaction vessel of 50 ppm after 5 minutes, 10 minutes, 20 minutes and 60 minutes • E. coli suspension and addition of ZPT with a final concentration in the 1.5 ml reaction vessel of 100 ppm after 5 minutes, 10 minutes, 20 minutes and 60 minutes • E. coli suspension and addition of ZPT with a final concentration in the 1.5 ml reaction vessel of 200 ppm after 5 minutes, 10 minutes, 20 minutes and 60 minutes • E. coli suspension and addition of ZPT with a final concentration in the 1.5 ml reaction vessel of 500 ppm after 5 minutes, 10 minutes, 20 minutes and 60 minutes • E. coli suspension and addition of ZPT with a final concentration in the 1.5 ml reaction vessel of 1000 ppm after 5 minutes, 10 minutes, 20 minutes and 60 minutes
(§3) The 1.5 ml reaction vessels were incubated at room temperature.
After the incubation times specified, the colony forming units (CFU) were determined by streaking 1 μl of each of the suspensions diluted in 20 μl of LB medium and, after incubation for 2 days, counting the colonies.

[2] = tested on: Candida albicans (DSM 11948); experiment: Short-term effect (CFU); format: cell-based
Procedure: as §1
YM growth medium (Becton, Dickinson and Company, Sparks, USA) 3 g of yeast extract 3 g of malt extract 5 g of peptone 10 g of dextrose make up to 1 liter, set pH 6.2
The growth test was effected as follows: 5 ml of YM medium were inoculated with C. albicans and incubated at 30° C. and 200 rpm overnight.
1.5 ml reaction vessels were filled with 1 ml each of YM medium and inoculated with the C. albicans suspension of the overnight culture. The resulting C. albicans suspension was set at the start of the experiment to an optical density, measured at 600 nm, of 0.1. The concentration of the peptide solution in water or ZPT solution (zinc pyrithione, >96%, Sigma Aldrich) dissolved in DMSO was 2% (w/w).
as §2, with “C. albicans” for “E. coli”
as §3
After the incubation times specified, the colony forming units (CFU) were determined by streaking 1 μl of each of the suspensions diluted in 20 μl of YM medium and, after incubation for 2 days, counting the colonies.

Substance: zinc pyrithione [ZPT]
- Inhibition in words ([1]; 50-1000 ppm, up to 60 minutes): no significant inhibition
- Colony forming units after the incubation time specified ([1]; 50 ppm, 5 minutes): 2000 ± 0 CFU
- Colony forming units after the incubation time specified ([1]; 50 ppm, 10 minutes): 2000 ± 0 CFU
- Colony forming units after the incubation time specified ([1]; 50 ppm, 20 minutes): 2000 ± 0 CFU
- Colony forming units after the incubation time specified ([1]; 50 ppm, 60 minutes): 2000 ± 0 CFU
- Colony forming units after the incubation time specified ([1]; 100 ppm, 5 minutes): 2000 ± 0 CFU
- Colony forming units after the incubation time specified ([1]; 100 ppm, 10 minutes): 2000 ± 0 CFU
- Colony forming units after the incubation time specified ([1]; 100 ppm, 20 minutes): 2000 ± 0 CFU
- Colony forming units after the incubation time specified ([1]; 100 ppm, 60 minutes): 2000 ± 0 CFU
- Colony forming units after the incubation time specified ([1]; 200 ppm, 5 minutes): 2000 ± 0 CFU
- Colony forming units after the incubation time specified ([1]; 200 ppm, 10 minutes): 2000 ± 0 CFU
- Colony forming units after the incubation time specified ([1]; 200 ppm, 20 minutes): 2000 ± 0 CFU
- Colony forming units after the incubation time specified ([1]; 200 ppm, 60 minutes): 2000 ± 0 CFU
- Colony forming units after the incubation time specified ([1]; 500 ppm, 5 minutes): 2000 ± 0 CFU
- Colony forming units after the incubation time specified ([1]; 500 ppm, 10 minutes): 2000 ± 0 CFU
- Colony forming units after the incubation time specified ([1]; 500 ppm, 20 minutes): 2000 ± 0 CFU
- Colony forming units after the incubation time specified ([1]; 500 ppm, 60 minutes): 2000 ± 0 CFU
- Colony forming units after the incubation time specified ([1]; 1000 ppm, 5 minutes): 2000 ± 0 CFU
- Colony forming units after the incubation time specified ([1]; 1000 ppm, 10 minutes): 2000 ± 0 CFU
- Colony forming units after the incubation time specified ([1]; 1000 ppm, 20 minutes): 2000 ± 0 CFU
- Colony forming units after the incubation time specified ([1]; 1000 ppm, 60 minutes): 2000 ± 0 CFU
- Inhibition in words ([2]; 50-1000 ppm, up to 60 minutes): no significant inhibition
- Colony forming units after the incubation time specified ([2]; 50 ppm, 5 minutes): 830 ± 190 CFU
- Colony forming units after the incubation time specified ([2]; 50 ppm, 10 minutes): 1096 ± 51 CFU
- Colony forming units after the incubation time specified ([2]; 50 ppm, 20 minutes): 986 ± 20 CFU
- Colony forming units after the incubation time specified ([2]; 50 ppm, 60 minutes): 982 ± 93 CFU
- Colony forming units after the incubation time specified ([2]; 100 ppm, 5 minutes): 809 ± 100 CFU
- Colony forming units after the incubation time specified ([2]; 100 ppm, 10 minutes): 1048 ± 74 CFU
- Colony forming units after the incubation time specified ([2]; 100 ppm, 20 minutes): 806 ± 105 CFU
- Colony forming units after the incubation time specified ([2]; 100 ppm, 60 minutes): 762 ± 212 CFU
- Colony forming units after the incubation time specified ([2]; 200 ppm, 5 minutes): 676 ± 204 CFU
- Colony forming units after the incubation time specified ([2]; 200 ppm, 10 minutes): 906 ± 331 CFU
- Colony forming units after the incubation time specified ([2]; 200 ppm, 20 minutes): 882 ± 190 CFU
- Colony forming units after the incubation time specified ([2]; 200 ppm, 60 minutes): 711 ± 125 CFU
- Colony forming units after the incubation time specified ([2]; 500 ppm, 5 minutes): 863 ± 35 CFU
- Colony forming units after the incubation time specified ([2]; 500 ppm, 10 minutes): 832 ± 192 CFU
- Colony forming units after the incubation time specified ([2]; 500 ppm, 20 minutes): 710 ± 71 CFU
- Colony forming units after the incubation time specified ([2]; 500 ppm, 60 minutes): 617 ± 134 CFU
- Colony forming units after the incubation time specified ([2]; 1000 ppm, 5 minutes): 806 ± 20 CFU
- Colony forming units after the incubation time specified ([2]; 1000 ppm, 10 minutes): 700 ± 153 CFU
- Colony forming units after the incubation time specified ([2]; 1000 ppm, 20 minutes): 550 ± 88 CFU
- Colony forming units after the incubation time specified ([2]; 1000 ppm, 60 minutes): 482 ± 69 CFU

Substance: H-KWKLFKKIPKFLHLAKKF-NH2 [P18, H-KWKLFKKIPKFLHLAKKF-NH2]
- Colony forming units after the incubation time specified ([1]; 50 ppm, 5 minutes): 2000 ± 0 CFU
- Colony forming units after the incubation time specified ([1]; 50 ppm, 10 minutes): 2000 ± 0 CFU
- Colony forming units after the incubation time specified ([1]; 50 ppm, 20 minutes): 2000 ± 0 CFU
- Colony forming units after the incubation time specified ([1]; 50 ppm, 60 minutes): 1208 ± 532 CFU
- Colony forming units after the incubation time specified ([1]; 100 ppm, 5 minutes): 2000 ± 0 CFU
- Colony forming units after the incubation time specified ([1]; 100 ppm, 10 minutes): 2000 ± 0 CFU
- Colony forming units after the incubation time specified ([1]; 100 ppm, 20 minutes): 1836 ± 108 CFU
- Colony forming units after the incubation time specified ([1]; 100 ppm, 60 minutes): 726 ± 88 CFU
- Colony forming units after the incubation time specified ([1]; 200 ppm, 5 minutes): 2000 ± 0 CFU
- Colony forming units after the incubation time specified ([1]; 200 ppm, 10 minutes): 2000 ± 0 CFU
- Colony forming units after the incubation time specified ([1]; 200 ppm, 20 minutes): 1310 ± 144 CFU
- Colony forming units after the incubation time specified ([1]; 200 ppm, 60 minutes): 192 ± 56 CFU
- Colony forming units after the incubation time specified ([1]; 500 ppm, 5 minutes): 2000 ± 0 CFU
- Colony forming units after the incubation time specified ([1]; 500 ppm, 10 minutes): 2000 ± 0 CFU
- Colony forming units after the incubation time specified ([1]; 500 ppm, 20 minutes): 816 ± 96 CFU
- Colony forming units after the incubation time specified ([1]; 500 ppm, 60 minutes): 24 ± 16 CFU
- Colony forming units after the incubation time specified ([1]; 1000 ppm, 5 minutes): 2000 ± 0 CFU
- Colony forming units after the incubation time specified ([1]; 1000 ppm, 10 minutes): 2000 ± 0 CFU
- Colony forming units after the incubation time specified ([1]; 1000 ppm, 20 minutes): 369 ± 383 CFU
- Colony forming units after the incubation time specified ([1]; 1000 ppm, 60 minutes): 6 ± 2 CFU
- Colony forming units after the incubation time specified ([2]; 50 ppm, 5 minutes): 986 ± 280 CFU
- Colony forming units after the incubation time specified ([2]; 50 ppm, 10 minutes): 944 ± 209 CFU
- Colony forming units after the incubation time specified ([2]; 50 ppm, 20 minutes): 954 ± 14 CFU
- Colony forming units after the incubation time specified ([2]; 50 ppm, 60 minutes): 518 ± 82 CFU
- Colony forming units after the incubation time specified ([2]; 100 ppm, 5 minutes): 718 ± 116 CFU
- Colony forming units after the incubation time specified ([2]; 100 ppm, 10 minutes): 628 ± 112 CFU
- Colony forming units after the incubation time specified ([2]; 100 ppm, 20 minutes): 454 ± 127 CFU
- Colony forming units after the incubation time specified ([2]; 100 ppm, 60 minutes): 25 ± 0 CFU
- Colony forming units after the incubation time specified ([2]; 200 ppm, 5 minutes): 242 ± 122 CFU
- Colony forming units after the incubation time specified ([2]; 200 ppm, 10 minutes): 72 ± 2 CFU
- Colony forming units after the incubation time specified ([2]; 200 ppm, 20 minutes): 29 ± 2 CFU
- Colony forming units after the incubation time specified ([2]; 200 ppm, 60 minutes): 1 ± 1 CFU
- Colony forming units after the incubation time specified ([2]; 500 ppm, 5 minutes): 39 ± 1 CFU
- Colony forming units after the incubation time specified ([2]; 500 ppm, 10 minutes): 5 ± 6 CFU
- Colony forming units after the incubation time specified ([2]; 500 ppm, 20 minutes): 1 ± 1 CFU
- Colony forming units after the incubation time specified ([2]; 500 ppm, 60 minutes): 0 ± 0 CFU
- Colony forming units after the incubation time specified ([2]; 1000 ppm, 5 minutes): 10 ± 2 CFU
- Colony forming units after the incubation time specified ([2]; 1000 ppm, 10 minutes): 1 ± 2 CFU
- Colony forming units after the incubation time specified ([2]; 1000 ppm, 20 minutes): 0 ± 0 CFU
- Colony forming units after the incubation time specified ([2]; 1000 ppm, 60 minutes): 0 ± 0 CFU
